This assay deals with T1, PPARδ (Homo sapiens, UniProt Q03181).
T1 construct: made in house; host or cells: Sf9 insect cells (baculovirus), crude cell lysate
T1 sequence (Q03181 1-441): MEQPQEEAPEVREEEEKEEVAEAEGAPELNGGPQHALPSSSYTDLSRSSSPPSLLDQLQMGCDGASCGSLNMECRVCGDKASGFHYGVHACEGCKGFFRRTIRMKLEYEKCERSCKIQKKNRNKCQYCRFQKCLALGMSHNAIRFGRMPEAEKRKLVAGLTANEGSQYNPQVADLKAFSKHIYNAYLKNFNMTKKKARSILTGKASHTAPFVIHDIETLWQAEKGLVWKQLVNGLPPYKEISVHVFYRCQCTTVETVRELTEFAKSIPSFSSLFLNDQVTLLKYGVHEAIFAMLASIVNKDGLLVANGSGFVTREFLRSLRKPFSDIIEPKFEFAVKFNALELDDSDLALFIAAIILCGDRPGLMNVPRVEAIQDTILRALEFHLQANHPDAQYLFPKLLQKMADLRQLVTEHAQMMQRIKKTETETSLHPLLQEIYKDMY
T1 sequence (P19793 1-462 partner): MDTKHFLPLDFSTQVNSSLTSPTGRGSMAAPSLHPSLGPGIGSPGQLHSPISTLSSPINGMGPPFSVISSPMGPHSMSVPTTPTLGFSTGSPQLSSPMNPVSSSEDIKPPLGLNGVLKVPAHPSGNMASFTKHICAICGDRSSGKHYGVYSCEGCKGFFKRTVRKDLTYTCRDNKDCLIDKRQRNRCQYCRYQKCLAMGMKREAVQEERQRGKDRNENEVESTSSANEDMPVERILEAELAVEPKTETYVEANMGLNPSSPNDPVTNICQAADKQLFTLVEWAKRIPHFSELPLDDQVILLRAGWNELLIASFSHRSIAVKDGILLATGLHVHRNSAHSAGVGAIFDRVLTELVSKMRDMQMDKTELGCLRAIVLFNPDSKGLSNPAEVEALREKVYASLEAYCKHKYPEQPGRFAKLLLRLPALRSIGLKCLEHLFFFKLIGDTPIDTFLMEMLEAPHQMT
As to the kind of experiment: PPAR delta binding assay (SPA). The conditions noted are these: tritiated GW2331, n=4, read-out: Ki PPAR δ binding. The source says: The nucleotide sequences encoding full-length PPARα receptor DNA (National Center for Biotechnology Information (NCBI) Reference Sequence NM_005036.4), PPARδ receptor DNA (NCBI Reference Sequence NM_006238.4), PPARγ receptor DNA (NCBI Reference Sequence NM_015869.4) and Retinoid X Receptor (RXR) α DNA (NCBI Reference Sequence NM_002957.4) are synthesized and inserted into pFastBacHTb (Invitrogen) vector in-framed with the N-terminal HIS tag from the vector. […] The protein concentration is determined by Bradford assay using BSA as the standard.
Binding Affinities of Compounds for the PPAR α, δ, γ Receptors are Assessed Using Scintillation Proximity Assay (SPA) Technology.
Biotinylated oligonucleotide(DR2) ^5′[…]^3′ (SEQ ID NO: 1) is used for binding of receptors to Yttrium silicate streptavidin-coated SPA beads (Perkin Elmer). The PPAR α, δ, γ and Retinoid X Receptor (RXR) α receptors (endogenously expressed as heterodimers) are cell lysates from Baculovirus expression systems in Sf9 cells. […] Non-specific binding is determined in the presence of 10000 nM unlabeled GW2331 (Kliewer, S. A. et al Proc. Natl. Acad. Sci. USA (1997), 94: 4318-4323) for the alpha and delta receptors and 2-methyl-2-[4-[3-[propyl[(5-pyridin-2-ylthiophen-2-yl)sulfonyl]amino]-propyl]phenoxy]propanoic (WO 2004/073606) for the gamma receptor. […]

pKi: −log10 of the molar value.

By pKi is commonly meant the Ki on a negative log10 scale, so that one unit is a factor of ten.

Consider `CCCc1c(NC(=O)CC(C)(C)C(=O)[O-])cccc1OCCCOc1cc(O)c(-c2ccc(F)cc2)cc1CC.[Na+]` [Example 2, Sodium 4-[[3-[3-[2-ethyl-4-(4-fluorophenyl)-5-hydroxy-phenoxy]propoxy]-2-propyl-phenyl]amino]-2,2-dimethyl-4-oxo-butanoate], for which the negative-log Ki (pKi) is < 5.05.

Values taken from patent US9187411B2, “Leukotriene B4 antagonist compound” (Eli Lilly and Company, priority 2012, dated 2015).
